Laboratory results taken from patent US20220354835A1, “COMPOUNDS FOR DEGRADING TAU PROTEIN AGGREGATES AND USES THEREOF” (Aprinoia Therapeutics Limited, priority 2019, published 2022).

Assays:
[1] = target: T1, heparin-induced aggregated tau (aTau), full-length 2N4R human Tau (Homo sapiens, UniProt P10636); experiment: PBB5 competition assay; assay type: binding; details: 0.12 μM aTau
T1 construct: transformed with a full-length 2N4R tau expression plasmid; made in house; host or cells: E. coli BL21
T1 sequence (P10636 1-441 isoform P10636-8): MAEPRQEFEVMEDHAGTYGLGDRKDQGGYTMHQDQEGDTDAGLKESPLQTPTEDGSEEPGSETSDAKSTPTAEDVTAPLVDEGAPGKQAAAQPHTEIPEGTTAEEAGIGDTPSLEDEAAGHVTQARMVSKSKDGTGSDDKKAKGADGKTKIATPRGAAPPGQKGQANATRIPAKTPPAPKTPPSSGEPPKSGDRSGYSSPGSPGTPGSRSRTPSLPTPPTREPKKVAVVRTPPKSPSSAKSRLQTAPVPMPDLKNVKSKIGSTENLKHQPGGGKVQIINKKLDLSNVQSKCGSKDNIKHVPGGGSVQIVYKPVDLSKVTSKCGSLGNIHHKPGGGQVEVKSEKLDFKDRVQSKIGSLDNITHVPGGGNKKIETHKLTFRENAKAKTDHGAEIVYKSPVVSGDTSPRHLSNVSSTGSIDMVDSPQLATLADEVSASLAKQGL
Method: (A) Expression and purification of human Tau: 1 mM IPTG (Sangon Biotech, Cat. No A100487) was used to induce production of tau by bacteria (BL21, Invitrogen, Cat. No C600003) transformed with a full-length 2N4R tau expression plasmid. After 3 hours, cell pellet was resuspended in lysis buffer (100 mM PIPES, 1 mM EGTA, 1 mM MgSO4, pH 6.8) and lysed by sonication followed by centrifugation (15,000 rpm, 15 min, 4° C.). The supernatant was then placed in a boiling water bath for 20 min, followed by centrifugation (15,000 rpm, 15 min, 4° C.). Supernatant was loaded onto a Q-Sepharose® Fast Flow column (GE healthcare, Cat. No 17-0510-01), the flow-through fraction was loaded onto an SP-Sepharose® Fast Flow column (GE healthcare, Cat. No 17-0729-01), and tau protein was eluted with elution buffer (100 mM PIPES, 1 M NaCl, 1 mM EGTA, 1 mM MgSO4, 0.2 M NaCl, pH 6.8). Collected fractions of tau-containing eluates were pooled, concentrated and dialyzed against HEPES buffer (25 mM HEPES, 0.1 mM EDTA, 0.5 mM DTT, 100 mM NaCl, pH 7.2) and stored at −80° C. in small aliquots until use. Protein concentration was determined by UV absorption.
(B) Preparation of heparin-induced aggregated tau (aTau): 2 μM of tau prepared in 30 mM Tris-HCl, pH 7.5 buffer was incubated in tube with 15 μM heparin (Sigma, Cat. No H3149) at 37° C. for 24 hours.
(E) PBBS competition assay: 2 μM of aTau was diluted to 0.12 μM by […] (pH 6.8) and then incubated with 0.1 μM 2-(4-(2-(methylamino)pyridine-5-yl)-1,3-butadiene-1-yl)benzothiazole-6-ol (PBB5) and serially diluted compound (three-fold serial dilution, from 10 to 0.00017 μM) in a 96-well plate (Corning, Cat. No 3573) at 37° C. for 1 hour. Fluorescence intensity (excitation/emission=530/690 nm) of PBB5 was read by microplate spectrometer (EnSpire 2300, PerkinElmer). Percentage of competition was calculated using the following equation: (Max−well of compound alone)/(Max−Min)*100%, where Max=(Tau+PBB5) signals−(buffer+PBB5) signals; and Min=(buffer+PBB5) signals−(buffer+PBB5) signals.
The IC50 value of each compound was calculated with GraphPad Prism software using the “4 Parameter Logistic Model or Sigmoidal Dose-Response Model”:
Y=Bottom+(Top−Bottom)/(1+(IC50/×)^HillSlope)

[2] = In vivo pharmacokinetic study of plasma and brain tissue; details: mice, 1 mg/kg, intravenous
Method: To determine whether the compounds of the present disclosure are capable of crossing the blood brain barrier (BBB), example compound 160313 was administered to mice in a pharmacokinetic study (1 mg/kg, intravenous) of plasma and brain tissue.
Animal Husbandry: Mice were housed at animal room environment with ventilation 15 times/hour, lighting 12 hours/day, temperature 20° C. to 24° C. and humidity 40% to 70%. The study rooms were disinfected and cleaned prior to the start of the study and the operation area was cleaned after each dosing or sampling during the study conduct. All animals had free access to food and water during the study. The animals had access to Certified Rodent Diet and water ad libitum. The nutritional composition and levels of contaminants of the diet and impurities and contaminants of the water were monitored by third organization. The health status of the animals was evaluated in accordance with accepted animal husbandry procedures and deemed suitable for experimental use. […]
Bioanalytical Method Development: The concentrations of compound in plasma and brain samples were determined using a liquid chromatography with tandem mass spectrometry (LC-MS/MS) based method.

SMILES: CN(C)c1ccc(-c2ccc(-c3nc4ccc(NCCOCCOc5ccc6c(c5)CN(C5CCC(=O)NC5=O)C6=O)cc4s3)cc2)cn1 (stereo not drawn) [Compound 160313, 3-[6-[2-[2-[[2-[4-[6-(dimethylamino)pyridin-3-yl]phenyl]-1,3-benzothiazol-6-yl]amino]ethoxy]ethoxy]-3-oxo-1H-isoindol-2-yl]piperidine-2,6-dione]
- IC50 ([1]; 0.1 μM PBB5, 37° C. 1 hour, PBB5 fluorescence 530/690 nm): 220 nM
- Emax ([1]; 0.1 μM PBB5, compound up to 10 μM, read-out: Competition Assay with PBB5: Bmax (%)): 64%
- Cmax, Brain [2]: 111 ng/mL
